Experimental findings from publication PMC10771423 (Applied Microbiology and Biotechnology, 2024) are described below.

Assay [1] deals with T1, AldOTf (Thermopolyspora flexuosa, UniProt A0A543IX60).
T1 construct: gene FHX40_1862
Put plainly: oxygen consumption (oxygen electrode), steady-state kinetics. Format: biochemical. Conditions: read-out: KM (mM) / Glycerol^b; 50 mM KPi pH 7.5, 25 °C, O2 as co-substrate. The text has this: oxygen consumption (oxygen electrode), steady-state kinetics on AldOTf

Assay [2] deals with T1, AldOTf. The assay can be described thus: HRP-coupled AAP/DCHBS H2O2 assay, […] nm, steady-state kinetics. Format: biochemical. As to conditions: read-out: KM (mM) / Xylitol^a; 50 mM KPi pH 7.5, 25 °C, O2 as co-substrate.

T1 sequence (A0A543IX60 entry or part of it): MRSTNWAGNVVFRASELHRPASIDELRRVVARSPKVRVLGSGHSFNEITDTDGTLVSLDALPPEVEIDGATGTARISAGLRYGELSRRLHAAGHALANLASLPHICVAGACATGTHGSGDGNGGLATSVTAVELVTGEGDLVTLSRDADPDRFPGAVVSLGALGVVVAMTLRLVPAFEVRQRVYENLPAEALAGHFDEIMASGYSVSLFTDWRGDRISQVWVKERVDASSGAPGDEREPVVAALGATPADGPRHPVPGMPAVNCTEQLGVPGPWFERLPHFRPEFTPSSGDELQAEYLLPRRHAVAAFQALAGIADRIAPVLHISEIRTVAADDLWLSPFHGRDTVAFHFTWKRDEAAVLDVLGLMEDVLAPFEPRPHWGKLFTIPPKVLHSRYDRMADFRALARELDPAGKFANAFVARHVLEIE

On to `OCC(O)CO` [glycerol], for which the Km in assay [1] stood at 41 mM. In the case of `OC[C@@H](O)[C@H](O)[C@@H](O)CO` [xylitol], the Km in assay [2] is 0.04 mM.
